According to patent US12383545B1, “Treatment of migraine” (priority 2018, dated 2025):

Tests used:
[1] = system: participants with episodic migraine; experiment: Study C: 40-week open-label extension, safety and tolerability of atogepant 60 mg once daily; type: in vivo, human
Experimental: An open-label extension study for trial completers evaluated the long-term safety and tolerability of oral atogepant 60 mg daily for the prevention of migraine in participants with episodic migraine.
Participants in this trial (Study C) rolled over from the lead in trial (Study A) and were treated with atogepant 60 mg once daily for 40-weeks, with a 4-week safety follow-up period. Only safety data were collected.
Of 695 participants screened, a total of 685 participants took at least one dose of study medication and were included in the safety population. Overall, the mean age was 41.8 years. Female participants accounted for 88.2% of the Safety Population. White and Black or African American patients accounted for 84.4% and 12.6%, respectively. Mean BMI was 30.58 kg/m2.

Alkaline Phosphatase = experiment: Example 5: postbaseline hepatic laboratory parameter values of clinical interest, Alkaline Phosphatase; type: in vivo, human; settings: safety population
From the text: This study consisted of a 4-week screening and baseline period and a 12-week double-blind treatment period, which was followed by a 4-week safety follow-up period. Total study duration is 20-weeks.
To be randomized, eligible patients had to be 18 to 75 years of age (inclusive), have a history of migraine with or without aura for at least 1 year consistent with a diagnosis according to the International Classification of Headache Disorders criteria, 3rd edition, beta version, have experienced 4 to 14 migraine/probable migraine headache days and <15 headache days in the 28-day baseline period. Patients who had clinically significant hematologic, endocrine, cardiovascular, cerebrovascular, pulmonary, renal, hepatic, gastrointestinal, or neurologic disease were excluded from the study.
A total of 834 patients were randomized to double-blind treatment (ITT population), and 825 patients took at least 1 dose of double-blind IP (safety population). […] The primary efficacy variable was the change from baseline in mean monthly migraine/probable migraine headache days across the 12-week treatment period. The secondary efficacy variables were the change from baseline in mean monthly headache days across the 12-week treatment period, proportion of patients with at least a 50% reduction in mean monthly migraine/probable migraine headache days across the 12-week treatment period, and the change from baseline in mean monthly acute medication use days across the 12-week treatment period.

[2] = Atogepant 60 mg QD, Safety Population N = 685

## C[C@@H]1[C@H](c2c(F)ccc(F)c2F)C[C@H](NC(=O)c2cnc3c(c2)C[C@@]2(C3)C(=O)Nc3ncccc32)C(=O)N1CC(F)(F)F [atogepant]
[1]; 60 mg once daily, 40 weeks
  deaths observed: No deaths
[1]; [2]
  TEAE by Preferred Term: Corona virus infection: 15 (2.2) n (%)
  TEAE by Preferred Term: Influenza: 17 (2.5) n (%)
[1]; atogepant 60 mg once daily, 40 weeks, Safety Population N = 685
  Deaths, participants: (0.0) %
Alkaline Phosphatase; Atogepant 10 mg QD (N = 93)
  Participants with postbaseline Alkaline Phosphatase (U/L) >=1 * ULN, (%): (5.4) %
  Participants with postbaseline Alkaline Phosphatase (U/L) >=1 * ULN, n/N1: 5/92
  Participants with postbaseline Alkaline Phosphatase (U/L) >=1.5 * ULN, (%): (1.1) %
  Participants with postbaseline Alkaline Phosphatase (U/L) >=1.5 * ULN, n/N1: 1/92
  Participants with postbaseline Alkaline Phosphatase (U/L) >=2 * ULN, (%): (1.1) %
  Participants with postbaseline Alkaline Phosphatase (U/L) >=2 * ULN, n/N1: 1/92
  Participants with postbaseline Alkaline Phosphatase (U/L) >=3 * ULN, n/N1: 0
  Participants with postbaseline Alkaline Phosphatase (U/L) >=5 * ULN, n/N1: 0
  Participants with postbaseline Alkaline Phosphatase (U/L) >=10 * ULN, n/N1: 0
  Participants with postbaseline Alkaline Phosphatase (U/L) >=20 * ULN, n/N1: 0
Alkaline Phosphatase; Atogepant 30 mg BID (N = 86)
  Participants with postbaseline Alkaline Phosphatase (U/L) >=1 * ULN, (%): (2.4) %
  Participants with postbaseline Alkaline Phosphatase (U/L) >=1 * ULN, n/N1: 2/84
  Participants with postbaseline Alkaline Phosphatase (U/L) >=1.5 * ULN, n/N1: 0
  Participants with postbaseline Alkaline Phosphatase (U/L) >=2 * ULN, n/N1: 0
  Participants with postbaseline Alkaline Phosphatase (U/L) >=3 * ULN, n/N1: 0
  Participants with postbaseline Alkaline Phosphatase (U/L) >=5 * ULN, n/N1: 0
  Participants with postbaseline Alkaline Phosphatase (U/L) >=10 * ULN, n/N1: 0
  Participants with postbaseline Alkaline Phosphatase (U/L) >=20 * ULN, n/N1: 0
Alkaline Phosphatase; Atogepant 30 mg QD (N = 183)
  Participants with postbaseline Alkaline Phosphatase (U/L) >=1 * ULN, (%): (10.6) %
  Participants with postbaseline Alkaline Phosphatase (U/L) >=1 * ULN, n/N1: 19/179
  Participants with postbaseline Alkaline Phosphatase (U/L) >=1.5 * ULN, (%): (0.6) %
  Participants with postbaseline Alkaline Phosphatase (U/L) >=1.5 * ULN, n/N1: 1/179
  Participants with postbaseline Alkaline Phosphatase (U/L) >=2 * ULN, n/N1: 0
  Participants with postbaseline Alkaline Phosphatase (U/L) >=3 * ULN, n/N1: 0
  Participants with postbaseline Alkaline Phosphatase (U/L) >=5 * ULN, n/N1: 0
  Participants with postbaseline Alkaline Phosphatase (U/L) >=10 * ULN, n/N1: 0
  Participants with postbaseline Alkaline Phosphatase (U/L) >=20 * ULN, n/N1: 0
Alkaline Phosphatase; Atogepant 60 mg BID (N = 91)
  Participants with postbaseline Alkaline Phosphatase (U/L) >=1 * ULN, (%): (3.4) %
  Participants with postbaseline Alkaline Phosphatase (U/L) >=1 * ULN, n/N1: 3/88
  Participants with postbaseline Alkaline Phosphatase (U/L) >=1.5 * ULN, n/N1: 0
  Participants with postbaseline Alkaline Phosphatase (U/L) >=2 * ULN, n/N1: 0
  Participants with postbaseline Alkaline Phosphatase (U/L) >=3 * ULN, n/N1: 0
  Participants with postbaseline Alkaline Phosphatase (U/L) >=5 * ULN, n/N1: 0
  Participants with postbaseline Alkaline Phosphatase (U/L) >=10 * ULN, n/N1: 0
  Participants with postbaseline Alkaline Phosphatase (U/L) >=20 * ULN, n/N1: 0
Alkaline Phosphatase; Atogepant 60 mg QD (N = 186)
  Participants with postbaseline Alkaline Phosphatase (U/L) >=1 * ULN, (%): (6.6) %
  Participants with postbaseline Alkaline Phosphatase (U/L) >=1 * ULN, n/N1: 12/181
  Participants with postbaseline Alkaline Phosphatase (U/L) >=1.5 * ULN, n/N1: 0
  Participants with postbaseline Alkaline Phosphatase (U/L) >=2 * ULN, n/N1: 0
